Measured values taken from patent US10745432B2, “Crystal of 6′-sialyllactose sodium salt, and process for producing same” (KYOWA HAKKO BIO CO., LTD., priority 2015, dated 2020).

Experiments:
Format in all cases: physicochemical
[1] = Hygroscopicity: weight change on storage at 30° C., relative humidity 80%
Experimental: The hygroscopicity of the obtained crystal of 6SL sodium salt 4.6-hydrate and that of a 6SL sodium reagent (amorphous salt, manufactured by Carbosynth Limited) were compared under the following conditions.
Storage condition: 30° C., relative humidity: 80% (apparatus: THE051FA, manufactured by Advantec Toyo Kaisha Ltd.).
Measurement method: After about 100 mg of a sample was weighed with a precision balance, the sample was packed in a glass container and stored under the above-mentioned conditions. Thereafter, the sample was weighed again, and the weight change ratio was calculated.
Incidentally, the weight of the sample at each elapsed time was measured by assuming the weight of each sample at the start of the test to be 100%.

[2] = pH of aqueous solution of the crystal; conditions: aqueous solution at 100 g/L in terms of crystal of 6SL sodium salt 4.6-hydrate
Experimental: As for the pH, an aqueous solution at 100 g/L in terms of crystal of 6SL sodium salt 4.6-hydrate was measured.

[3] = Degree of coloration (transmittance at 430 nm) when a heat load at 60° C. was applied; conditions: for degree of coloration, transmittance T % 430 nm: solution at 100 g/L in terms of anhydrate, 1 cm
Experimental: Further, with respect to the crystal of 6SL sodium salt 4.6-hydrate and known amorphous 6SL sodium salt, the degree of coloration when a heat load at 60° C. was applied was compared, and the results are shown in Table 4.
The degree of coloration is expressed by transmittance T % 430 nm 100×10^−A (A=Abs: 430 nm, 1 cm), which was obtained by dissolving each substance at 100 g/L in terms of an anhydrate and performing measurement for the solution.

weight of sample (weight at start of test = 100%) ([1]; elapsed time 0 hours (start, assumed 100%))	weight of sample (weight at start of test = 100%) ([1]; elapsed time 0.5 hours)	weight of sample (weight at start of test = 100%) ([1]; elapsed time 2.5 hours)	weight of sample (weight at start of test = 100%) ([1]; elapsed time 8 hours)	weight of sample (weight at start of test = 100%) ([1]; elapsed time 20 hours)	pH [2]	degree of coloration, transmittance T % 430 nm ([3]; elapsed time 0 days)	degree of coloration, transmittance T % 430 nm ([3]; elapsed time 3 days)	degree of coloration, transmittance T % 430 nm ([3]; elapsed time 6 days)	weight of sample (weight at start of test = 100%) ([1]; elapsed time 0.5 hours, sodium salt)	weight of sample (weight at start of test = 100%) ([1]; elapsed time 2.5 hours, sodium salt)	weight of sample (weight at start of test = 100%) ([1]; elapsed time 8 hours, sodium salt)	weight of sample (weight at start of test = 100%) ([1]; elapsed time 20 hours, sodium salt)	degree of coloration, transmittance T % 430 nm ([3]; elapsed time 0 days, sodium salt)	degree of coloration, transmittance T % 430 nm ([3]; elapsed time 3 days, sodium salt)	degree of coloration, transmittance T % 430 nm ([3]; elapsed time 6 days, sodium salt)	Compound	hygroscopicity (in words) ([1]; compared with amorphous salt)	degree of coloration during storage (in words) ([3]; compared with known amorphous 6SL sodium salt)
100.0%	98.8%	98.6%	98.4%	98.7%	6.23	99.9%	99.8%	99.8%	–	–	–	–	–	–	–	CC(=O)NC1C(O)CC(OCC2OC(OC3C(CO)OC(O)C(O)C3O)C(O)C(O)C2O)(C(=O)[O-])OC1C(O)C(O)CO.[Na+] (stereo not drawn) [Crystal of sodium salt, 6SL sodium salt 4.6-hydrate]	lower hygroscopicity than the amorphous salt	lower than that of known amorphous 6SL sodium salt
–	–	–	–	–	–	–	–	–	114.4%	119.6%	122.9%	124.1%	99.4%	99.0%	98.8%	CC(=O)NC1C(O)CC(OCC2OC(OC3C(CO)OC(O)C(O)C3O)C(O)C(O)C2O)(C(=O)[O-])OC1C(O)C(O)CO.[Na+] (stereo not drawn) [Amorphous salt, 6SL sodium salt, reference compound]	–	–
